What was measured:
Protein Kinase A (PKA) = Protein Kinase A (PKA) (Homo sapiens, UniProt P17612); assay: nonfluorogenic (mobility shift) assay of kinase activity in microfluidic device; type: biochemical; conditions: PKA 100 nM, 10 μM F1-Kemptide; different concentrations of inhibitor sipped; FIG. 3C
Protocol: The device illustrated in FIG. 3B was used as described to perform a nonfluorogenic assay of kinase activity, and particularly, to screen for inhibition of kinase activity by inhibitors brought into the device via the external sampling capillary. In particular, Protein Kinase A (PKA) enzyme (100 nM) was placed into well 350, while the fluorescent substrate (10 μM F1-Kemptide) was placed into well 352, different concentrations of an exemplary PKA inhibitor (H-89) were sipped into the reaction channel portion 304 via an external capillary element (the entry point of which is shown as 302) at regular intervals. Flow of materials, including sipping of inhibitor was caused by applying vacuum (as described above) at waste reservoir 358. An electric field was constantly applied across the length of channel segment 310 by virtue of different voltages being applied at reservoirs 354 and 356. The process utilized a 5 second sipping time, with an overall 100 second duty cycle, e.g., reaction time plus separation time plus clearing time.

[1] = target: T1, Gq coupled P2u purinergic receptor (THP-1) (Homo sapiens, UniProt P41231); assay: model calcium flux assay, dose response in microfluidic device; type: cell-based; conditions: THP-1 cells preloaded with Fluo-3 or Fluo-4; UTP 100, 300, 1000 and 3000 nM; detection 15 seconds after initial exposure; FIG. 2D/2E
T1 construct: cell line that carried the Gq coupled P2u purinergic receptor (THP-1); endogenous in cells; host or cells: THP-1 (human monocytic leukemia cell line)
T1 sequence (P41231 whole entry): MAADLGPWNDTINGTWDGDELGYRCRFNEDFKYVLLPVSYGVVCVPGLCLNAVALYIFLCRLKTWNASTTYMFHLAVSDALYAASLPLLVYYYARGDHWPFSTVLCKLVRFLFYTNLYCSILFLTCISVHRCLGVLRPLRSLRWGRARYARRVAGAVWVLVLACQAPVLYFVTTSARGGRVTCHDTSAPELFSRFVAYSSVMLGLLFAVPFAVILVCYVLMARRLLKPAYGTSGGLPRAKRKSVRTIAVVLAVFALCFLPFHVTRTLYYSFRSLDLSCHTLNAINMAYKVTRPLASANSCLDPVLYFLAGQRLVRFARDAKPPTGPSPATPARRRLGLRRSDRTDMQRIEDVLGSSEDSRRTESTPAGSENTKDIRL
Source text: The device shown in FIG. 2C was fabricated and used to test the dose response of a human monocytic leukemia cell line that carried the Gq coupled P2u purinergic receptor (THP-1), as a model calcium flux assay. Briefly, a phospholipase C/IP3/calcium signal transduction pathway is activated when the receptor binds to its ligand, UTP. When the cells are preloaded with a calcium sensitive indicator, i.e., Fluo-3 or Fluo-4 (available from Molecular Probes, Eugene, Oreg.), the transient increase in intracellular calcium is then detected as a fluorescent signal.
In the present example and with reference to FIGS. 2A and 2C, THP-1 cells were preloaded with Fluo-3 or Fluo-4, as well as a nucleic acid stain (Syto-62 from Molecular Probes). The cells were washed and resuspended in Cell Buffer (1.56 ml HBSS, 0.94 ml 33% Ficoll, 5 μl HEPES (1 M stock), 25 μl 100×PBC, 25 μl 10% BSA, and 0.546 ml OPTI-Prep (65% stock)) and added to reservoir 206. Different concentrations of UTP in Cell Buffer (100, 300, 1000 and 3000 nM, respectively) were then added to reagent reservoirs 210-216. […]
In order to monitor the stepwise increase of each UTP reagent solution, an additional marker solution, BODIPY-arginine, was added to the reagent reservoirs 210-216. […] Briefly, the slope of calcium signal (response) vs. Syto 62 signal (cell number) was calculated for each UTP concentration.

| Compound | inhibition of kinase activity (deviation from steady state) (Protein Kinase A (PKA)) | calcium signal (response), fluorescent signal from each cell [1] |
| --- | --- | --- |
| O=S(=O)(NCCNC/C=C/c1ccc(Br)cc1)c1cccc2cnccc12 [H-89] | greatest deviation from steady state (A) is seen with highest inhibitor concentration |  |
| O=c1ccn([C@@H]2O[C@H](COP(=O)(O)OP(=O)(O)OP(=O)(O)O)[C@@H](O)[C@H]2O)c(=O)[nH]1 [UTP] |  | peaks increase discernibly in size with each stepwise addition |

— US6500323B1, “Methods and software for designing microfluidic devices” (Caliper Technologies Corp., priority 1999, dated 2002)
